Results from patent publication US20180303901A1, “Notch1 Decoy Antagonists Protect From Obesity-Induced Insulin Resistance and Fatty Liver” (The Trustees of Columbia University in the City of New York, priority 2013, published 2018).
Entries after “also recorded” stand apart in the source; their conditions may differ. Peptide text beside a SMILES is read from it. * marks the point of attachment. Cbz = O=C(OCc1ccccc1)*

Tests used:
[1] = system: FAO hepatoma cells; assay: Western blots / gene expression in FAO hepatoma cells transduced with Fc or N1-IC; type: cell-based; conditions: MG132 for 4-h
Source text: FIG. 8A-FIG. 8F: Activation of hepatic Notch increases mTor, lipogenic genes, and steatosis in chow-fed mice. *p<0.05, **p<0.01, ***p<0.001 vs. Fc or GFP. Protein expression normalized to either Actin or Tubulin. Mice were 8-week-old C57Bl/6 males, unless otherwise indicated. […] FIG. 8D: Liver Western blots in mice transduced with GFP or N1-IC adenovirus, sacrificed after a 16-h fast followed by 2-h refeeding. (n=6/group). FIG. 8E: Gene expression analysis in mice transduced with GFP or N1-IC adenovirus, sacrificed after a 16-h fast followed by 2-h refeeding. (n=6/group). FIG. 8F: De novo lipogenesis in hepatocytes after transduction with GFP or N1-IC adenovirus and incubation with 10 nM insulin (triplicate wells, representative of 2 individual experiments). FIG. 8G: Hepatic triglyceride content 7-d after GFP or N1-IC transduction in 16-h fasted, 24-week-old, chow-fed Cre- and L-Rbpj mice. […] FIG. 8K-FIG. 8M: Quantitation of the phospho/total mTor, 4E-BP1 and S6k levels from the experiments in FIG. 8J. […]
(§1) Notch1-IC, Notch decoy (1-24), Fc and GFP adenoviruses have been described (Kitamura 2007; Funahashi 2011; Nakae 2003). We transduced primary hepatocytes or HEK 293 ceils at MOI 5 and FAO hepatoma cells at MOI 200, to achieve 90-100% infection efficiency as assessed by GFP expression. […]

[2] = system: primary hepatocytes; assay: Western blots of primary hepatocytes transfected with Raptor cDNA, transduced with Fc or Notch1, cycloheximide; type: cell-based, mouse; conditions: cycloheximide for 2-h
Procedure: FIG. 11A-FIG. 11H: Notch induces mTorc1 complex stability. FIG. 11A: Western blots of liver proteins from 5h-fasted L-Rbpj and control mice (mTor and Actin blots reproduced from FIG. 2n), FIG. 11B: Western blot of liver protein from chow-fed, 12-week-old mice transduced with Fc or N1-IC, sacrificed at day 7, after overnight fasting. FIG. 11C: Western blots from FAO hepatoma cells transduced with either Fc or N1-IC, with or without treatment with MG132 for 4-h. FIG. 11D: Western blots of primary hepatocytes, transfected with Raptor cDNA, then transduced with Fc or Notch1 and treated for 2-h with cycloheximide. […]
We isolated and cultured primary mouse hepatocytes as described (Pajvani 2011). […] We measured fatty acid oxidation as described (Li 2011), with the following modifications: primary hepatocytes were incubated serum-free medium with 1.5% fatty-acid free BSA (Sigma) containing 0.1 mM cold oleic acid and 1 μCi 14C-oleic acid (PerkinElmer Life Sciences) for 4 h. […] Trapped 14CO2 on the alkalinized filter paper was measured as described (Li 2011). We measured lipogenesis as described (Yecies 2011), with the following modifications: hepatocytes were stimulated with 10 nM insulin in serum-free DMEM for 2 h, then labeled with 14C-acetate (PerkinElmer Life Sciences) for 2 h. […]

[3] = system: N1-IC-transduced mice; assay: Rapamycin treatment of Fc or N1-IC-transduced mice; type: in vivo, mouse; conditions: data not shown
Procedure: FIG. 9A-FIG. 9F: mTor inhibition prevents Notch-induced fatty liver. Data shown means±SEM. FIG. 9A: Fasn-luciferase in FAO hepatoma cells transfected with either Raptor or scrambled (scr) shRNA, transduced with either Fc (−) or N1-IC (Notch) adenovirus and treated for 16-h with 100 nM insulin. ***p<0.001 vs. Fc control, &p<0.001 vs. scrambled shRNA, #p<0.001 vs. no insulin. […]
Blood glucose was measured by glucose meter (OneTouch) and plasma insulin by ELISA (Millipore). […] Hepatic de novo lipogenesis was determined by measuring the amount of newly synthesized FA, as resolved by TLC, present in the liver 1 h after intraperitoneal injection of 1 mCi of 3H2O (Zhang 2006). Triglyceride secretion rate was measured after injection of Poloxamer 407, with serial measurement of plasma triglycerides (Li 2011).
as §1

**Q.** How did the “effect of N1-IC on Raptor protein under proteosomal inhibition” value [1] turn out when `CC(C)C[C@@H](C=O)NC(=O)[C@H](CC(C)C)NC(=O)[C@H](CC(C)C)NC(=O)OCc1ccccc1` [MG132] (Cbz-Leu-Leu-Leu-aldehyde) was run?
**A.** independent

**Q.** `C[C@@H]1C[C@@H]([C@H](O)CC2CC(=O)NC(=O)C2)C(=O)[C@@H](C)C1` [cycloheximide] was tested. Which “effect of N1-IC on Raptor protein under protein synthesis inhibition” value [2] did it give?
**A.** fully reversed; also recorded: prevents

**Q.** Which “effect of rapamycin on glucose tolerance” value [3] does the source give for `CO[C@H]1C[C@@H]2CC[C@@H](C)[C@@](O)(O2)C(=O)C(=O)N2CCCC[C@H]2C(=O)O[C@H]([C@H](C)C[C@@H]2CC[C@@H](O)[C@H](OC)C2)CC(=O)[C@H](C)/C=C(\C)[C@@H](O)[C@@H](OC)C(=O)[C@H](C)C[C@H](C)/C=C/C=C/C=C/1C` [rapamycin] here?
**A.** mild glucose intolerance
